Data taken from article PMC12856912, “Structure-Guided Semisynthesis of Blasticidin S–Amicetin Chimeras as Selective Ribosome Inhibitors” (Journal of the American Chemical Society, 2026).
Values after ≈ are worked out from the molar mass of the structure shown. Read-outs that look alike come from different tables or passages of the source.

Key:
MRSA ATCC 43300 = experiment: Antibacterial MIC assay, serial dilution; type: cell-based, Staphylococcus aureus; details: for Selectivity index (CC50/MIC) MRSA 43300: CC50 Vero cells / MIC; for MIC: Staphylococcus aureus, read-out: MIC MRSA ATCC 43300
Summary of the method: (§1)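 Broth microdilution in cation-adjusted Mueller-Hinton broth with an inoculum at OD600 0.004 and final compound levels of 128–1 μg/mL. Plates ran 16–18 h at 37 °C, or 24 h for VRE. OD600 was normalized to controls, and MIC = lowest concentration inhibiting >90% growth; two biological replicates were run in duplicate.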

S. aureus ATCC 6538P = experiment: Antibacterial MIC assay, serial dilution; type: cell-based, Staphylococcus aureus; details: for Selectivity index (CC50/MIC) S. aureus 6538P: CC50 Vero cells / MIC; for MIC: Staphylococcus aureus, ATCC 6538P / ATCC 6539P, read-out: MIC S. aureus ATCC 6539P
Summary of the method: as §1

S. aureus ΔNorA = experiment: Antibacterial MIC assay, serial dilution; type: cell-based, Staphylococcus aureus; details: for Selectivity index (CC50/MIC) S. aureus ΔNorA: CC50 Vero cells / MIC; for MIC: Staphylococcus aureus, read-out: MIC S. aureus ∆NorA
Summary of the method: as §1

[1] = test system: Methicillin resistant Staphylococcus epidermidis (MRSE) ATCC 35984 NRS101; experiment: Antibacterial MIC assay, serial dilution; type: cell-based; details: for Selectivity index (CC50/MIC) MRSE 35984: CC50 Vero cells / MIC; for MIC: Staphylococcus epidermidis, read-out: MIC Methicillin resistant Staphylococcus epidermidis (MRSE) ATCC 35984 NRS101
[2] = test system: Methicillin resistant S. aureus (MRSA) USA300; experiment: Antibacterial MIC assay, serial dilution; type: cell-based, Staphylococcus aureus; details: for Selectivity index (CC50/MIC) MRSA USA300: CC50 Vero cells / MIC; for MIC: Staphylococcus aureus, read-out: MIC Methicillin resistant S. aureus (MRSA) USA300
[3] = test system: Vancomycin resistant E. faecalis NR-31972 (VRE); experiment: Antibacterial MIC assay, serial dilution; type: cell-based, Enterococcus faecalis; details: for Selectivity index (CC50/MIC) VRE NR-31972: CC50 Vero cells / MIC; for MIC: Enterococcus faecalis, VRE, 24 h, read-out: MIC Vancomycin resistant E. faecalis NR-31972 (VRE)
Summary of the method: as §1

[4] = test system: Acinetobacter baumannii ATCC 17978; experiment: Antibacterial MIC assay, serial dilution; type: cell-based; details: ATCC17978, range from biological replicates
Summary of the method: as §1

[5] = test system: Enterococcus faecalis ATCC 29212; experiment: Antibacterial MIC assay, serial dilution; type: cell-based; details: for Selectivity index (CC50/MIC) E. faecalis 29212: CC50 Vero cells / MIC; for MIC: Enterococcus faecalis, ATCC 29112 / ATCC 29212, 24 h, read-out: MIC E. faecalis ATCC 29112
[6] = test system: Klebsiella pneumoniae ATCC 29665; experiment: Antibacterial MIC assay, serial dilution; type: cell-based; details: for MIC: Klebsiella pneumoniae, ATCC29665, range from biological replicates, read-out: MIC K. pneumoniae ATCC-29665; for Selectivity index (CC50/MIC) K. pneumoniae: CC50 Vero cells / MIC
Summary of the method: as §1

Pseudomonas aeruginosa = experiment: Antibacterial MIC assay, serial dilution; type: cell-based; details: for Selectivity index (CC50/MIC) P. aeruginosa: CC50 Vero cells / MIC; for MIC: Pseudomonas aeruginosa, range from biological replicates, read-out: MIC P. aeruginosa
Summary of the method: as §1

[7] = test system: Vancomycin resistant Enterococcus faecium NR-31909 (VRE); experiment: Antibacterial MIC assay, serial dilution; type: cell-based; details: for MIC: Enterococcus faecium, VRE, 24 h, read-out: MIC Vancomycin resistant Enterococcus faecium NR-31909 (VRE); for Selectivity index (CC50/MIC) VRE NR-31909: CC50 Vero cells / MIC
Summary of the method: as §1

[8] = test system: Escherichia coli BAA-2452; experiment: Antibacterial MIC assay, serial dilution; type: cell-based; details: BAA2452, read-out: MIC Escherichia coli BAA-2452
[9] = Cytotoxicity assay (MTS/PMS); type: cell-based; details: monkey, 24 h treatment, MTS/PMS, average of three biological replicates, read-out: CC50 against Vero cells
Summary of the method: (§2)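 Vero cells were allowed to adhere for 24 h in DMEM with 10% FBS at 37 °C, then exposed to serial compound dilutions for 24 h. Viability was measured by MTS/PMS (4 h, absorbance at 490 nm) and normalized to vehicle. CC50 is the concentration giving 50% viability, averaged over three biological replicates.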

Vero cells = experiment: Cytotoxicity assay (MTS/PMS); type: cell-based; details: Vero cells, chimera vs parent of its series
Summary of the method: as §2

bacteria = experiment: Antibacterial assays, summary statements over the panel; type: cell-based; details: against most S. aureus strains
Method: Media and solutions were autoclaved or sterile filtered prior to use and mani pulations were carri ed out in a laminar flow hood. Antibacterial t esting was performed in polypropylene 96-well flat bottom plates. The minimal inhibitory concentration of blasticidin S (1) hydrochloride, methyl ester (3) trihydrochloride, P10 (2) tri-T FA , phenet hyl amide (4) tri -T FA , an d blastimidines M 19– 22, A, 29–32, P 37–40, and C 43–46 (salt forms as described in the te xt) were assessed against Staphylococcus aureus ΔNorA, S. aureus ATCC 6538P, methicillin-resistant S. aureus (MRSA) ATCC 43300, Enterococcus faecalis ATCC 29212, vancomycin- resistant Enterococcus, Klebsiella pneumoniae ATCC 29665, Pseudomonas aeruginosa,and Acinetobacter baumannii ATCC 17978 using serial dilutions. Doxycycline (Gold Bio) as a positive control and the vehicle as a negative control. Stock solutions of each compound were prepared at 2.56 mg/mL in 50% DMSO/water and serially diluted in 50% DMSO/water to create master plates. […]
Growth controls (wells with inoculated media but no vehicle or test compounds) were included to assess any potential toxicity from the vehicle. […] Inh ibition was determined by measuring the optical density at 600 nm (OD60 0) with a Cytation 3 pl ate read er (BioTek). […]

MRSA USA-300 = type: cell-based, Staphylococcus aureus; details: for bacteriostatic or bactericidal effect in time-kill assay: 5× MIC and 10× MIC
Method: MRSA USA-300 was grown overnight in cation- adjusted Muell er-Hinton broth (CAMHB), then subcultured into fresh CAMHB and incubated aerobi cally at 37°C until reaching the logarithmic phase, corresponding to an optical density (OD₆₀₀) of 0.2. The bacterial cultures were further diluted to adjust to a final concentration of 5 × 10⁵ CFU/mL in CAMHB. P3, P5, vancomycin and linezolid, were added at concentrations of 5× and 10× MIC. A DMSO-treated […]
culture serv ed as an untreated control. The cultures were aerobically maintai ned at 37°C in shaking incubator. At specifi c sampling times, aliquots were collected, resuspended in phosphate-buffered saline (PBS) and distributed to three replicates on tryptic soy agar (TSA). After a 24-hour incubation period at 37°C, the number of colony- forming units (CFUs) was evaluated.
F i g u re S 1. Time kill results against MRSA USA 300 at 5X and 10X MIC. Compound P3 ( 38) is shown as red squares, compound P5( 40) is shown as green tri angles. Vancomycin (inverted purple triangle) is used as a b act ericidal control and linezolid (orange diamond) as a bacteriostatic control with DMSO (blue circles ) as a neg ative control. […]

[10] = Vero cells (monkey kidney epithelial cells)

| Compound | Selectivity index (CC50/MIC) MRSA 43300 (MRSA ATCC 43300) | MIC (MRSA ATCC 43300) | Selectivity index (CC50/MIC) S. aureus 6538P (S. aureus ATCC 6538P) | MIC (S. aureus ATCC 6538P) | Selectivity index (CC50/MIC) S. aureus ΔNorA (S. aureus ΔNorA) | MIC (S. aureus ΔNorA) | Selectivity index (CC50/MIC) MRSE 35984 [1] | MIC [1] | Selectivity index (CC50/MIC) MRSA USA300 [2] | MIC [2] | Selectivity index (CC50/MIC) VRE NR-31972 [3] | MIC [3] | MIC [4] | Selectivity index (CC50/MIC) E. faecalis 29212 [5] | MIC [5] | MIC [6] | Selectivity index (CC50/MIC) P. aeruginosa (Pseudomonas aeruginosa) | MIC (Pseudomonas aeruginosa) | MIC [7] | MIC [8] | further results |
| --- | --- | --- | --- | --- | --- | --- | --- | --- | --- | --- | --- | --- | --- | --- | --- | --- | --- | --- | --- | --- | --- |
| CC(=O)Nc1ccc(C(=O)Nc2ccn([C@H]3C=C[C@H](NC(=O)C[C@@H](N)CCN(C)C(=N)N)[C@@H](C(=O)O)O3)c(=O)n2)cc1 [Blastimidine C4] | <1.6 | > 128 mg/L | <1.6 | > 128 mg/L | <1.6 | > 128 mg/L | <1.6 | > 128 mg/L | <1.6 | > 128 mg/L | <1.6 | > 128 mg/L | > 128 mg/L | <1.6 | > 128 mg/L | 128 mg/L (≈ 219 µM) | <1.6 | > 128 mg/L | > 128 mg/L | > 128 mg/L | CC50 at 24 h [9, 10]: 203 mg/L (≈ 348 µM); fold lower cytotoxicity relative to parent molecule (Vero cells): > 10 fold |
| CNc1ccc(C(=O)Nc2ccn([C@H]3C=C[C@H](NC(=O)C[C@@H](N)CCN(C)C(=N)N)[C@@H](C(=O)OC)O3)c(=O)n2)cc1 [Blastimidine M3] | 13 | 16 mg/L (≈ 28.1 µM) | 26 | 8 mg/L (≈ 14 µM) | 26 | 8 mg/L (≈ 14 µM) | 26 | 8 mg/L (≈ 14 µM) | 26 | 8 mg/L (≈ 14 µM) | 13 | 16 mg/L (≈ 28.1 µM) | > 128 mg/L | 13 | 16 mg/L (≈ 28.1 µM) | 32 mg/L (≈ 56.2 µM) | <1.6 | > 128 mg/L | 64 mg/L (≈ 112 µM) | 32 mg/L (≈ 56.2 µM) | Selectivity index (CC50/MIC) K. pneumoniae [6]: 6.4; Selectivity index (CC50/MIC) VRE NR-31909 [7]: 3.2; CC50 at 24 h [9, 10]: 205 mg/L (≈ 360 µM); Selectivity index (SI) (bacteria): > 25 |
| CC(=O)NC[C@H]1CN(c2ccc(N3CCOCC3)c(F)c2)C(=O)O1 [linezolid, reference compound] |  |  |  |  |  |  |  |  |  |  |  |  |  |  |  |  |  |  |  |  | bacteriostatic or bactericidal effect in time-kill assay (MRSA USA-300): bacteriostatic activity |
| CN[C@H](CC(C)C)C(=O)N[C@H]1C(=O)N[C@@H](CC(N)=O)C(=O)N[C@H]2C(=O)N[C@H]3C(=O)N[C@H](C(=O)N[C@H](C(=O)O)c4cc(O)cc(O)c4-c4cc3ccc4O)[C@H](O)c3ccc(c(Cl)c3)Oc3cc2cc(c3O[C@@H]2O[C@H](CO)[C@@H](O)[C@H](O)[C@H]2O[C@H]2C[C@](C)(N)[C@H](O)[C@H](C)O2)Oc2ccc(cc2Cl)[C@H]1O [vancomycin, reference compound] |  |  |  |  |  |  |  |  |  |  |  |  |  |  |  |  |  |  |  |  | bacteriostatic or bactericidal effect in time-kill assay (MRSA USA-300): bactericidal activity; time to bactericidal activity (MRSA USA-300; time-kill assay): ≤ 8 h |
| CN(CC[C@H](N)CC(=O)N[C@H]1C=C[C@H](n2ccc(N)nc2=O)O[C@@H]1C(=O)O)C(=N)N [Blastimidine C1, blasticidin S] | <0.1 | > 128 mg/L | <0.1 | > 128 mg/L | <0.1 | > 128 mg/L | <0.1 | > 128 mg/L | 0.1 | 128 mg/L (≈ 303 µM) | 0.1 | 128 mg/L (≈ 303 µM) | > 128 mg/L | 0.6 | 32 mg/L (≈ 75.7 µM) | 128 mg/L (≈ 303 µM) | <0.1 | > 128 mg/L | 128 mg/L (≈ 303 µM) | 64 mg/L (≈ 151 µM) | Selectivity index (CC50/MIC) K. pneumoniae [6]: 0.1; Selectivity index (CC50/MIC) VRE NR-31909 [7]: 0.1; CC50 at 24 h [9]: 18 mg/L (≈ 42.6 µM) |
